The record followed here is ChEMBL document CHEMBL3286179, “Discovery of the Fibrinolysis Inhibitor AZD6564, Acting via Interference of a Protein-Protein Interaction” (ACS Med Chem Lett, 2014).

Series [1] is described as follows: Drug excretion in rat urine. It counts as ADME. Particulars: in vivo.
Series [2] can be described thus: Drug metabolism in human hepatocytes assessed as glucuronidation on isoxazolone ring. It counts as ADME, cell-based, Hepatocyte.
A short description of series [3]: Drug excretion in dog urine. It counts as ADME, Canis lupus familiaris. As to conditions: read-out: Drug excretion.
Series [4] can be described thus: Oral bioavailability in dog at 6 umol/kg. Particulars: in vivo, at 6 µmol/kg. It counts as ADME, organism-based, Canis lupus familiaris.
The nature of series [5]: Renal clearance in dog at 3 umol/kg, iv and 6 umol/kg, po. Particulars: in vivo. Format: ADME, organism-based, Canis lupus familiaris, Kidney.
Series [6] is described as follows: Renal clearance in rat at 5 umol/kg, iv and 20 umol/kg, po. Particulars: in vivo. It counts as ADME, organism-based, Kidney.
Series [7] is described as follows: Metabolic stability in human liver microsomes. Format: ADME. As to conditions: read-out: Stability.
Series [8] is described as follows: Total clearance in rat at 5 umol/kg, iv and 20 umol/kg, po. Particulars: in vivo. It counts as ADME, organism-based.
A short description of series [9]: Oral bioavailability in rat at 20 umol/kg. Particulars: in vivo, at 20 µmol/kg. It counts as ADME, organism-based.
A short description of series [10]: Total clearance in dog at 3 umol/kg, iv and 6 umol/kg, po. It counts as ADME, organism-based, Canis lupus familiaris. As to conditions: in vivo.
Series [11] has as its system Hepatocyte. Briefly: Metabolic stability in human hepatocytes measured per 10^6 cells. It counts as ADME, cell-based.
Series [12] is described as follows: Dissociation constant, pKa of the compound. It counts as physicochemical.

Structures are written as SMILES.

With `O=c1cc([C@H]2CCN[C@@H](Cc3ccccc3)C2)o[nH]1`, in series [1], the Drug excretion stood at 25 %ID. Moreover, the Drug metabolism result in [2] is listed as “metabolite_detected”. Also, the dose excreted in series [3] was 7%. Besides, the values for the bioavailability in series [4] and in [9] were 73% and 33%, respectively. Further, the CL renal in series [5] is 0.2 mL/min/kg; in [6], 11 mL/min/kg. The microsomal CLint in series [7] was under 5 µL/min/mg. For the same molecule, the clearance in [8] came out at 46 mL/min/kg; in [10], 2.9 mL/min/kg. Also, in [11], the Stability is under 1 µL/min.
Molecule `O=c1cc([C@@H]2CCN[C@H](Cc3ccccc3)C2)o[nH]1` returned a pKa in series [12] of 4.4.
For the molecule `O=c1cc([C@H]2CCN[C@@H](CCc3ccccc3)C2)o[nH]1`, the Drug excretion in series [1] amounted to 25 %ID. Further, the Drug metabolism entry in series [2] is “metabolite_detected”. The figures for the bioavailability in series [4] and in series [9] were 59% and 19%, respectively. The results for the CL renal in series [5] and in series [6] were 0.12 mL/min/kg and 6 mL/min/kg, respectively. Moreover, the microsomal CLint in [7] was under 5 µL/min/mg. Moreover, the clearance in series [8] was 24 mL/min/kg; in series [10] it was 1.8 mL/min/kg. In series [11], this molecule had a Stability of under 1 µL/min.
On to `O=c1cc([C@H]2CCN[C@H](Cc3ccccc3)C2)o[nH]1`, for which the pKa in series [12] came to 4.9.
In series [1], `CC(C)(C)C[C@H]1C[C@@H](c2cc(=O)[nH]o2)CCN1` yielded a Drug excretion of 45 %ID. The Drug metabolism result in series [2] is on record as “metabolite_detected”. Also, in series [3], the dose excreted is 70%. In addition, the bioavailability was determined as 53% in series [4] and 39% in series [9]. Also, the CL renal in series [5] stood at 0.8 mL/min/kg; in series [6], 6 mL/min/kg. Besides, the microsomal CLint in series [7] was under 5 µL/min/mg. For the same molecule, the results for the clearance in series [8] and in series [10] were 13 mL/min/kg and 1.1 mL/min/kg, respectively. In series [11], this molecule yielded a Stability of under 1 µL/min.
